Data as given in patent US9131677B2, “Organ preservation solution” (University Court of the University of Edinburgh, priority 2006, dated 2015).

Tests used:
[1] = test system: Human umbilical vein endothelial cells (HUVEC); test: Endothelial cell viability assay (trypan blue exclusion); conditions: for HUVEC cell viability vs control: 37° C., absence of any oxidants (unstressed); for HUVEC cell viability vs control / HUVEC cell survival in the presence of menadione: supplemented UW
Protocol: Human umbilical vein endothelial cells (HUVEC) were seeded in 162 ml flasks (Dulbecco's modified Eagle's medium 37° C., 5% CO2). Cells were cultured to confluence and transferred to 6-well culture dishes containing phosphate buffered saline (control), UW without GSH, UW+GSH (3 mM), UW+GSH-MEE (3 mM) or UW+GSNO for 24 h (37° C.) in the absence of any oxidants or in the presence of a hydroxyl radical generator (menadione; 10 μM), the superoxide generating system, xanthine+xanthine oxidase (5 μM; 1 mU/ml) or the oxidant species H2O2 (100 μM). Cell viability after 24 h incubations was assessed using a standard trypan blue exclusion assay.

[2] = test system: aortic rings; test: Cold ischaemic storage of aortic rings in UW solutions followed by myograph reoxygenation; design: species or system Wistar rats; conditions: for endothelium-dependent relaxation (ACh) vs GSH-free UW: GSH 3 mM, GSHMEE 3 mM
Protocol: Animal care and experimental protocols were performed in accordance with the Home Office Guidance in the Operation of Animals (Scientific Procedures) Act 1986, UK. Adult male Wistar rats weighing 300-450 g were kept in a temperature-controlled environment with a 12 h light-dark cycle, and allowed free access to water and standard diet. University of Wisconsin solution was prepared according to standard protocol: Potassium lactobionate 100 mM, KH2PO4 25 mM, MgSO4 5 mM, raffinose 30 mM, adenosine 5 mM, allopurinol 1 mM, dexamethasone 16 mg/L, insulin 40 U/L, penicillin 200 000 U/L and EDTA 0.03 mM at pH 7.4. The EDTA was added in order to help protect GSNO against metal-ion catalysed decomposition. The solution was bubbled with argon gas for 1 hour to mimic hypoxia. Oxygen levels were confirmed using an oxygen electrode (Apollo 4000 integrated free radical analyser, World Precision Instruments Inc. USA). Bubbling for 30 minutes depleted >90% of oxygen in solution. Following cervical dislocation, laparotomy was performed and the aorta dissected with clearance of periaortic fat and connective tissue. Vessels were divided into 3-5 mm aortic rings with care taken not to stretch or damage the vessels. Aortic rings were subjected to cold ischaemic storage (4° C. for 1 or 48 hours) in sealed containers filled with hypoxic control (UW without GSH) solution; UW with GSH (3 mM); UW with glutathione monoethyl ester ([…]; 3 mM) or UW with S-nitrosated glutathione (GSNO; 100 μM). After storage, aortic rings were suspended between two stainless steel supports in a myograph (700MO, Danish Myo, Aarhus, Denmark) and reoxygenated in 10 ml organ baths containing Krebs buffer solution (mM): […] Resting tensions of 1.5 g were applied to all rings prior to equilibration (30 minutes). Following equilibration, all vessels were exposed to Krebs buffer containing a high concentration of potassium (60 mM) three times to assess tissue viability and to provide a reference maximum contraction for subsequent data analysis. Each response was followed by a washout. A concentration-response curve to the α1 adrenoceptor agonist, L-phenylephrine (PE; 10^-8M-3×10^-5M) was then constructed and used to identify the concentration of PE required to generate 80% maximal contraction (EC80) for subsequent vasodilator studies. Upon establishing stable contractions, cumulative concentration-response curves to the endothelium-dependent vasodilator, acetylcholine (ACh; 10^-9-10^-5M) were constructed in all preparations. Only one concentration-response curve was obtained per tissue. A further submaximal PE contraction was elicited and the NO synthase inhibitor, N^ω-nitro-L-arginine methyl ester (L-NAME) was applied to inhibit endogenous NO production and to determine the vasodilatory effect of endothelium-derived NO under basal (unstimulated) conditions. Subsequently, the NO scavenger, carboxy-PTIO (cPTIO; 1 mM), was added in order to establish the contribution of NOS-independent NO to any vasodilator tone existing under basal conditions.

[3] = Decomposition of GSNO in storage, absorbance at 339 nm; assay type: physicochemical
Protocol: The freezing point for DMSO is ˜15° C., so these samples were effectively “frozen” for the duration of the experiment, perhaps contributing to the stability of GSNO under these conditions. The apparent depression of absorbance at time zero in the DMSO sample is most likely attributable to incomplete dissolution of the material when the first measurement was taken.

[4] = after 48 h cold ischaemia, GSNO 100 μM

Row | SMILES | HUVEC cell viability vs control ([1]; 24 h) | HUVEC cell survival in the presence of menadione ([1]; 24 h, menadione 10 μM) | endothelium-dependent relaxation (ACh) vs GSH-free UW [2, 4] | contraction on addition of L-NAME to precontracted tissues vs standard UW ([2]; after 48 h cold ischaemia) | other results
1 | N[C@@H](CCC(=O)N[C@@H](CS)C(=O)NCC(=O)O)C(=O)O [GSH, Glutathione] | significantly reduced viability | significantly enhanced cell survival | significantly poorer endothelium-dependent relaxation | – | –
2 | CCOC(=O)CNC(=O)[C@H](CS)NC(=O)CC[C@H](N)C(=O)O [GSH-MEE, glutathione monoethyl ester] | significantly reduced viability | significantly enhanced cell survival | no significant difference | significantly lesser contraction | –
3 | N[C@@H](CCC(=O)N[C@@H](CSN=O)C(=O)NCC(=O)O)C(=O)O [GSNO, S-nitrosoglutathione] | not significantly different from control | ineffective | no significant difference | significantly lesser contraction | half-life at 100 µM ([3]; modified UW solution, modified UW (containing EDTA but excluding GSH), refrigerator in the dark at 4-6° C.): ~144 h; decomposition of GSNO in 100% DMSO ([3]; same time period, dark, 4-6° C., samples effectively frozen): did not show any significant decomposition; contraction on further addition of NO scavenger cPTIO vs standard UW ([2]; after 1 h cold ischaemia): significantly greater contraction; contraction on further addition of cPTIO vs standard UW ([2]; after 48 h cold ischaemia): significantly greater contraction; maximal contractions to PE vs GSH-free UW [2, 4]: significantly depressed maximal contractions
4 | OO [H2O2] | – | – | – | – | effect of oxidant on HUVEC cell survival ([1]; 24 h, X/XO 5 μM, 1 mU/ml, H2O2 100 μM): substantial cell death
5 | CC1=CC(=O)c2ccccc2C1=O [menadione] | – | – | – | – | cells surviving oxidant treatment under control conditions ([1]; 24 hr treatment, menadione 10 μM): less than 5%
